# Laboratory results reported in ChEMBL document CHEMBL1201862, “PubChem BioAssay data set” (2004).
#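 Cultured in 96-well plates, cells were exposed to test compound for 48 hours across five concentrations. At the GI50, growth is halved.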 Calls of active or inactive are those of the source. No stated cut-off is given here; in the data, active = GI50 up to about 1.1 µM and inactive = higher.
# Legend:
# Experiment in all cases: NCI anticancer screen, dose series, 48 h
# OVCAR-3 = system: OVCAR-3
# DU-145 = system: DU-145
# SW-620 = system: SW-620
# SK-MEL-5 = system: SK-MEL-5
# NCI-H23 = system: NCI-H23
# SK-MEL-2 = system: SK-MEL-2
# A549 = system: A549
# 786-0 = system: 786-0
# HCT-116 = system: HCT-116
# MDA-N = system: MDA-N
# M14 = system: M14
# HOP-92 = system: HOP-92
# MOLT-4 = system: MOLT-4
# SN12C = system: SN12C
# K562 = system: K562
# NCI-H226 = system: NCI-H226
# Malme-3M = system: Malme-3M
# SF-539 = system: SF-539
# MCF7 = system: MCF7
Compound,GI50 (OVCAR-3),GI50 (DU-145),GI50 (SW-620),GI50 (SK-MEL-5),GI50 (NCI-H23),GI50 (SK-MEL-2),GI50 (A549),GI50 (786-0),GI50 (HCT-116),GI50 (MDA-N),GI50 (M14),GI50 (HOP-92),GI50 (MOLT-4),GI50 (SN12C),GI50 (K562),GI50 (NCI-H226),GI50 (Malme-3M),GI50 (SF-539),GI50 (MCF7)
Nc1nc(Cc2ccccc2)nc(Cc2ccccc2)c1-c1ccccc1,14.7 µM (inactive),22.8 µM (inactive),33.9 µM (inactive),15.5 µM (inactive),17.7 µM (inactive),13.6 µM (inactive),33.9 µM (inactive),22.9 µM (inactive),19.5 µM (inactive),16.1 µM (inactive),30.3 µM (inactive),11.5 µM (inactive),11.2 µM (inactive),28.2 µM (inactive),18 µM (inactive),19.2 µM (inactive),20.4 µM (inactive),,
CN(C)CCCN1c2ccc3ccccc3c2Sc2cccc(Cl)c21,2.89 µM (inactive),4.54 µM (inactive),2.04 µM (inactive),3.83 µM (inactive),10.6 µM (inactive),1.99 µM (inactive),5.81 µM (inactive),2.99 µM (inactive),3.79 µM (inactive),2.38 µM (inactive),1.89 µM (inactive),1.51 µM (inactive),2.14 µM (inactive),6.19 µM (inactive),1.73 µM (inactive),7.11 µM (inactive),5.13 µM (inactive),4.32 µM (inactive),
[O-][n+]1onc2c1CCC(=N\O)/C2=N/Nc1ccccc1,> 100 µM (inactive),> 100 µM (inactive),> 100 µM (inactive),> 100 µM (inactive),> 100 µM (inactive),> 100 µM (inactive),> 100 µM (inactive),> 100 µM (inactive),> 100 µM (inactive),> 100 µM (inactive),> 100 µM (inactive),,> 100 µM (inactive),> 100 µM (inactive),> 100 µM (inactive),> 100 µM (inactive),> 100 µM (inactive),> 100 µM (inactive),> 100 µM (inactive)
COc1cccc2c1OC(c1cccc3ccccc13)C([N+](=O)[O-])=C2 (stereo not given),1.34 µM (inactive),2.65 µM (inactive),,1.59 µM (inactive),1.84 µM (inactive),,1.95 µM (inactive),1.87 µM (inactive),1.21 µM (inactive),1.93 µM (inactive),1.31 µM (inactive),,0.552 µM (active),2 µM (inactive),0.685 µM (active),2 µM (inactive),1.75 µM (inactive),,0.728 µM (active)
Brc1ccc2nc(-c3cccs3)nc(N3CCN(c4ccccc4)CC3)c2c1,> 100 µM (inactive),> 100 µM (inactive),> 100 µM (inactive),> 100 µM (inactive),> 100 µM (inactive),> 100 µM (inactive),> 100 µM (inactive),> 100 µM (inactive),> 100 µM (inactive),,> 100 µM (inactive),> 100 µM (inactive),,> 100 µM (inactive),> 100 µM (inactive),> 100 µM (inactive),> 100 µM (inactive),> 100 µM (inactive),> 100 µM (inactive)
O=C(O)c1nc2cc(C(F)(F)F)ccc2nc1Nc1ccc(Cl)c(Cl)c1,13.5 µM (inactive),,10.8 µM (inactive),17.7 µM (inactive),14.3 µM (inactive),2.96 µM (inactive),8.79 µM (inactive),15.9 µM (inactive),9.23 µM (inactive),14 µM (inactive),13 µM (inactive),11 µM (inactive),,,14.6 µM (inactive),15.8 µM (inactive),20.1 µM (inactive),11.4 µM (inactive),23.8 µM (inactive)
CCCCCCCCCC(=O)NC(CCC(=O)N(CCNC(=O)c1nc(-c2ccccc2)oc1-c1ccccc1)Cc1ccccc1)C(=O)O (stereo not given),16.3 µM (inactive),20.3 µM (inactive),23.3 µM (inactive),16.2 µM (inactive),17.9 µM (inactive),,17.4 µM (inactive),17.7 µM (inactive),17.7 µM (inactive),18.4 µM (inactive),15 µM (inactive),17.6 µM (inactive),22.4 µM (inactive),18.7 µM (inactive),,23.8 µM (inactive),16.4 µM (inactive),24 µM (inactive),
Cc1ccc([N+](=O)[O-])c2c(NCCC[N+](C)(C)[O-])c3ccccc3nc12,2.19 µM (inactive),1.43 µM (inactive),2.18 µM (inactive),0.998 µM (active),0.573 µM (active),0.773 µM (active),1.53 µM (inactive),2.02 µM (inactive),1.52 µM (inactive),,2.34 µM (inactive),0.962 µM (active),0.33 µM (active),2.19 µM (inactive),1.52 µM (inactive),2.24 µM (inactive),1.22 µM (inactive),2.6 µM (inactive),0.401 µM (active)
CCOC(=O)c1cc(-c2ccc(OC)cc2)c([N+](=O)[O-])n1C,> 10 µM (inactive),> 10 µM (inactive),,,> 10 µM (inactive),> 10 µM (inactive),> 10 µM (inactive),> 10 µM (inactive),> 10 µM (inactive),8.91 µM (inactive),> 10 µM (inactive),> 10 µM (inactive),> 10 µM (inactive),> 10 µM (inactive),6.84 µM (inactive),> 10 µM (inactive),> 10 µM (inactive),> 10 µM (inactive),
COc1cccc2cc(C(N)=O)c(=N)oc12,36.9 µM (inactive),92.5 µM (inactive),99.1 µM (inactive),49.2 µM (inactive),48.4 µM (inactive),22.9 µM (inactive),50.5 µM (inactive),31.7 µM (inactive),28.6 µM (inactive),59.7 µM (inactive),46.6 µM (inactive),81.8 µM (inactive),> 100 µM (inactive),39.4 µM (inactive),> 100 µM (inactive),96.2 µM (inactive),19.2 µM (inactive),41.5 µM (inactive),
C[C@H]1C=C2C(=O)O[C@H]3CC[C@@H](C1)[C@@]23O,5.38 µM (inactive),,3.28 µM (inactive),4.13 µM (inactive),2.8 µM (inactive),2.71 µM (inactive),11.2 µM (inactive),3.28 µM (inactive),2.75 µM (inactive),,3.83 µM (inactive),5.25 µM (inactive),1.21 µM (inactive),2.4 µM (inactive),2.37 µM (inactive),12.5 µM (inactive),7.03 µM (inactive),2.03 µM (inactive),
CCN(CC)CCSc1nc2c(c(=N)n1-c1ccccc1)c(=S)n(-c1ccccc1)c(=S)n2-c1ccccc1,1.64 µM (inactive),1.67 µM (inactive),1.67 µM (inactive),3.24 µM (inactive),3.69 µM (inactive),7.55 µM (inactive),2.08 µM (inactive),0.441 µM (active),2.06 µM (inactive),2.36 µM (inactive),2.16 µM (inactive),1.41 µM (inactive),0.194 µM (active),1.73 µM (inactive),0.601 µM (active),25.7 µM (inactive),1.55 µM (inactive),4.45 µM (inactive),
Cc1cccc(/N=N/c2ccc(/N=N/c3c(O)ccc4ccccc34)cc2C)c1,> 100 µM (inactive),,> 100 µM (inactive),> 100 µM (inactive),> 100 µM (inactive),> 100 µM (inactive),80 µM (inactive),83.6 µM (inactive),> 100 µM (inactive),,41.7 µM (inactive),32.2 µM (inactive),> 100 µM (inactive),,> 100 µM (inactive),> 100 µM (inactive),2 µM (inactive),36.2 µM (inactive),> 100 µM (inactive)
CC(C)[Si](OC12CCC(CC1O)CC2CO)(C(C)C)C(C)C (stereo not given),14.5 µM (inactive),16.9 µM (inactive),21.1 µM (inactive),18.3 µM (inactive),12.8 µM (inactive),15.8 µM (inactive),10.4 µM (inactive),10.5 µM (inactive),8 µM (inactive),,15.1 µM (inactive),12.1 µM (inactive),11.5 µM (inactive),22 µM (inactive),14.7 µM (inactive),17.3 µM (inactive),,23.4 µM (inactive),12 µM (inactive)
COc1ccc2[nH]c3c(c2c1)CCn1c-3nc2ccccc2c1=O,,,> 25 µM (inactive),> 25 µM (inactive),,,> 25 µM (inactive),> 25 µM (inactive),> 25 µM (inactive),> 25 µM (inactive),> 25 µM (inactive),,> 25 µM (inactive),> 25 µM (inactive),> 25 µM (inactive),,,> 25 µM (inactive),> 25 µM (inactive)
CN1C(C(=O)Nc2ccccn2)=C(O)c2ccccc2S1(=O)=O [PIROXICAM],> 100 µM (inactive),> 100 µM (inactive),> 100 µM (inactive),> 100 µM (inactive),> 100 µM (inactive),> 100 µM (inactive),> 100 µM (inactive),> 100 µM (inactive),> 100 µM (inactive),> 100 µM (inactive),> 100 µM (inactive),,> 100 µM (inactive),> 100 µM (inactive),,> 100 µM (inactive),> 100 µM (inactive),> 100 µM (inactive),> 100 µM (inactive)
